Assays:
Test in all cases: biochemical
Assay type in all cases: binding
[1] = target: T1, panel of 442 kinases (Homo sapiens, UniProt O43318); conditions: kinase TAK1; for remaining activity at 1 µM: read-out: TAK1 (% of control at 1 µM)
T1 construct: purchased Ambit Biosciences (scanMAXX KINOMEscan)
T1 sequence (O43318 1-606): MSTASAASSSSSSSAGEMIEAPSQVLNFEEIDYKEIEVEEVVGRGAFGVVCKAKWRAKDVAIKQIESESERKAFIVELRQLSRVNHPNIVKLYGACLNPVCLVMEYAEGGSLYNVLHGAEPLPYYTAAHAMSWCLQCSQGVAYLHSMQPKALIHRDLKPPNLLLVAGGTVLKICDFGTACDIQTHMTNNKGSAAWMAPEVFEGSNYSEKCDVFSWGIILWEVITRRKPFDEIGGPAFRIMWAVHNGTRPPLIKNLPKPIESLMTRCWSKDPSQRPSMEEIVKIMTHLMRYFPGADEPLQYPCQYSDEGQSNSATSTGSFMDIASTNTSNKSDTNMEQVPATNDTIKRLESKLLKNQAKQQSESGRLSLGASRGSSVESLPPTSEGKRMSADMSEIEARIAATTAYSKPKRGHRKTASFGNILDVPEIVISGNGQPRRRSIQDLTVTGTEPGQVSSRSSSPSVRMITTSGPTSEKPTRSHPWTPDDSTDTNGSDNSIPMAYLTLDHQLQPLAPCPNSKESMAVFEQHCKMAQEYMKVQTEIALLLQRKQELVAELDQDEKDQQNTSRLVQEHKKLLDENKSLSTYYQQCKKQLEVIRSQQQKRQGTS

[2] = target: T2, panel of 442 kinases (Homo sapiens, UniProt P00533, L858R/T790M); conditions: EGFR(L858R,T790M); for remaining activity at 1 µM: read-out: % of control at 1 µM
T2 construct: purchased Ambit Biosciences (scanMAXX KINOMEscan)
T2 sequence (P00533 25-1210 T790M/L858R): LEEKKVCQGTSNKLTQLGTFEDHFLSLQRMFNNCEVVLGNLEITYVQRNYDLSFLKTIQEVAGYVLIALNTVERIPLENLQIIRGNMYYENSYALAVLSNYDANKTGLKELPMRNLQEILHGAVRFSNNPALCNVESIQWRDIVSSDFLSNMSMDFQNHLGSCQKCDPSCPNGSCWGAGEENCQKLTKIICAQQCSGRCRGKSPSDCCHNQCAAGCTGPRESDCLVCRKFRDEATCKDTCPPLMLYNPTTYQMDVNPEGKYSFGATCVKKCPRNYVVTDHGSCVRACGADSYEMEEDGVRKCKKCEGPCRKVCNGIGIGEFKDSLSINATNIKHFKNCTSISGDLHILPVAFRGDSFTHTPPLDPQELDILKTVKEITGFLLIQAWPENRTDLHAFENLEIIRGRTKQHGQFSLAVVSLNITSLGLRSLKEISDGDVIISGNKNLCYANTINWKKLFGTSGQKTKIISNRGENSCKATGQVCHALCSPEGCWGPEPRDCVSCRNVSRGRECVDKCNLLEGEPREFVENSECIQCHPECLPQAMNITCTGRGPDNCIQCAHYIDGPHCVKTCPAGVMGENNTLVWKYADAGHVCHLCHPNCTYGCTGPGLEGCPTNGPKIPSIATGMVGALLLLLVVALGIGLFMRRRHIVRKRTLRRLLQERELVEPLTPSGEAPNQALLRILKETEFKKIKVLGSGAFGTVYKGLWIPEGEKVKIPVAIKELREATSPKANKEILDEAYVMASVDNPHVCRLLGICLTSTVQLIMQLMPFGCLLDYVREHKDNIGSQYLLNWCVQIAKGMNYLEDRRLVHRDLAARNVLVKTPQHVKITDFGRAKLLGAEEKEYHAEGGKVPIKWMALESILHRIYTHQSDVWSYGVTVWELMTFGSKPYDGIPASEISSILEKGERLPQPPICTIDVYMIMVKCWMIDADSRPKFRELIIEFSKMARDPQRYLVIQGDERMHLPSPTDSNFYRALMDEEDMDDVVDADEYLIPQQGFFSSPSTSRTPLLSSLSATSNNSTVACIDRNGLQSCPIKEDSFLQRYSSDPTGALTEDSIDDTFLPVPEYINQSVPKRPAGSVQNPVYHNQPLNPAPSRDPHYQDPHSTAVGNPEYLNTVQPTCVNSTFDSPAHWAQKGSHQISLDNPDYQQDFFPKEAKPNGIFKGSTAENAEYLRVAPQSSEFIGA

[3] = target: T3, panel of 442 kinases (Homo sapiens, UniProt P00533, L861Q); conditions: EGFR(L861Q); for remaining activity at 1 µM: read-out: % of control at 1 µM
T3 construct: purchased Ambit Biosciences (scanMAXX KINOMEscan)
T3 sequence (P00533 25-1210 L861Q): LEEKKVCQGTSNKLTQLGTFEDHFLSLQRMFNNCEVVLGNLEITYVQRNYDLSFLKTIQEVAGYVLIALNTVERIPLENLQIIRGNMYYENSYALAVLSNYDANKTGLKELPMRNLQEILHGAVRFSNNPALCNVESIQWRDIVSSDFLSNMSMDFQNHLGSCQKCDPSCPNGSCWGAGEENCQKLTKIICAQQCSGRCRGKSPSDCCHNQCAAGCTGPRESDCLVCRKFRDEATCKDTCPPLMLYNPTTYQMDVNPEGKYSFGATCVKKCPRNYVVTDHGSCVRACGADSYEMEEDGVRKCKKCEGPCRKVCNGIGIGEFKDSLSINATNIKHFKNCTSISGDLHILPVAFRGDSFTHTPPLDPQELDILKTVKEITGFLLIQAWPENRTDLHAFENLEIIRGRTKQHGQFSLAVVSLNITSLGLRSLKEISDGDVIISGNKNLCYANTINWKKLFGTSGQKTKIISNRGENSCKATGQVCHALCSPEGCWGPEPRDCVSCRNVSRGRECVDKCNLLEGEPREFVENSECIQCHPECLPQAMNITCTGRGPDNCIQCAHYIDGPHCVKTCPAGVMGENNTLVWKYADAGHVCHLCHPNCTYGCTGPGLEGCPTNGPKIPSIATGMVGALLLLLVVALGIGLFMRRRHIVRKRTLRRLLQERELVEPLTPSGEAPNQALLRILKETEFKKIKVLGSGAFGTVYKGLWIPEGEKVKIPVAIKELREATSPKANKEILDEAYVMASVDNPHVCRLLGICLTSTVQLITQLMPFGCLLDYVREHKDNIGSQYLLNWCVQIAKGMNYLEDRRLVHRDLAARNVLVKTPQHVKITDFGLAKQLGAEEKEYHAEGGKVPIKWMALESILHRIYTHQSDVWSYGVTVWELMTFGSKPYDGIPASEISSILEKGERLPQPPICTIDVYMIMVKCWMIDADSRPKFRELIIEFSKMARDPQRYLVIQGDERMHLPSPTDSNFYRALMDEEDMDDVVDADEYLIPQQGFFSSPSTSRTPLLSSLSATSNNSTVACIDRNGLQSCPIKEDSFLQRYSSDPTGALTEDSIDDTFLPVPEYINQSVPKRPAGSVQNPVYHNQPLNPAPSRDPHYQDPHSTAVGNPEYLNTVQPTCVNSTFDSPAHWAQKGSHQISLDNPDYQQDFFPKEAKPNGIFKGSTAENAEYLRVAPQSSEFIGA

[4] = target: T4, panel of 442 kinases (Homo sapiens, UniProt P54760); conditions: EPHB4; for remaining activity at 1 µM: read-out: % of control at 1 µM
T4 construct: purchased Ambit Biosciences (scanMAXX KINOMEscan)
T4 sequence (P54760 16-987): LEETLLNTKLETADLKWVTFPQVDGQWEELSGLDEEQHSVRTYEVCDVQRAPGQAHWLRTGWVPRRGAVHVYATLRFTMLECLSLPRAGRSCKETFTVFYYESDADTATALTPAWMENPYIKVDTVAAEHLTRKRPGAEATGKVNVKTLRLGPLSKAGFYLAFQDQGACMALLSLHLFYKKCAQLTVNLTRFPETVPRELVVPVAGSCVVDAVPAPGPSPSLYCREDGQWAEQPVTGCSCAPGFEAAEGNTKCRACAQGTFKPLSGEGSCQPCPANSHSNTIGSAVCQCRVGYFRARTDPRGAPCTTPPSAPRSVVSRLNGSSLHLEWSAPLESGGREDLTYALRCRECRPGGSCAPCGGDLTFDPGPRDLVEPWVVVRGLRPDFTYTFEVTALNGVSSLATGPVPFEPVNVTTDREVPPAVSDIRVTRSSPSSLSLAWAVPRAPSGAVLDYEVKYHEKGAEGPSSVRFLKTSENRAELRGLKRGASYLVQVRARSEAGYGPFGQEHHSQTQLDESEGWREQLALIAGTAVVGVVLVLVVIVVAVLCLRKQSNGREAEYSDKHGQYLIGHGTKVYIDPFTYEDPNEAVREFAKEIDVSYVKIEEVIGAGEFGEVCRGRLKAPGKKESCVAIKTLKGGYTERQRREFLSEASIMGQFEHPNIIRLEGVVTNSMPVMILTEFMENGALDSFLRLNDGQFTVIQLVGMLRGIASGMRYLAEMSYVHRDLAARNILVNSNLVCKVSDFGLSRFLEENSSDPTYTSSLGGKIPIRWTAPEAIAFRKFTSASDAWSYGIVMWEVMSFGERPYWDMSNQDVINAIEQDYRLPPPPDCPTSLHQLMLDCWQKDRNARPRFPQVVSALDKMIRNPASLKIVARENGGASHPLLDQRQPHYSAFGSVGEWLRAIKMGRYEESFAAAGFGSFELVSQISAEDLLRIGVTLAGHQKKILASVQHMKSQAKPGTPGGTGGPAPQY

[5] = target: T5, panel of 442 kinases (Homo sapiens, UniProt Q00537); conditions: kinase PCTK2; for remaining activity at 1 µM: read-out: % of control at 1 µM
T5 construct: purchased Ambit Biosciences (scanMAXX KINOMEscan)
T5 sequence (Q00537 whole entry): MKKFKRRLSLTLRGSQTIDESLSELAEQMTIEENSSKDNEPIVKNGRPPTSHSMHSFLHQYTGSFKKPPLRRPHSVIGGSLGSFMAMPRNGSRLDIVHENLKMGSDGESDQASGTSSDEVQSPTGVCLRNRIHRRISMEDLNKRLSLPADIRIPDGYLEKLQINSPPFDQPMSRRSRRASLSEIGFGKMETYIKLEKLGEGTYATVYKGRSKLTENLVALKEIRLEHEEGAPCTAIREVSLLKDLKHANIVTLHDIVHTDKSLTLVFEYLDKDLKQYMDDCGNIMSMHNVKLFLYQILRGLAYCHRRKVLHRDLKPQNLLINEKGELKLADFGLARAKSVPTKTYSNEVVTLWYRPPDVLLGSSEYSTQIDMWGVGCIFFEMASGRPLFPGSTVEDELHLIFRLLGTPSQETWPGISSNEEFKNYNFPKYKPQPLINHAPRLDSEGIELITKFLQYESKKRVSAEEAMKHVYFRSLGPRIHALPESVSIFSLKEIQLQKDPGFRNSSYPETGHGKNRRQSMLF

[6] = target: T6, panel of 442 kinases (Homo sapiens, UniProt Q8IYT8); conditions: kinase ULK2; for remaining activity at 1 µM: read-out: ULK2 (% of control at 1 µM)
T6 construct: purchased Ambit Biosciences (scanMAXX KINOMEscan)
T6 sequence (Q8IYT8 1-1036): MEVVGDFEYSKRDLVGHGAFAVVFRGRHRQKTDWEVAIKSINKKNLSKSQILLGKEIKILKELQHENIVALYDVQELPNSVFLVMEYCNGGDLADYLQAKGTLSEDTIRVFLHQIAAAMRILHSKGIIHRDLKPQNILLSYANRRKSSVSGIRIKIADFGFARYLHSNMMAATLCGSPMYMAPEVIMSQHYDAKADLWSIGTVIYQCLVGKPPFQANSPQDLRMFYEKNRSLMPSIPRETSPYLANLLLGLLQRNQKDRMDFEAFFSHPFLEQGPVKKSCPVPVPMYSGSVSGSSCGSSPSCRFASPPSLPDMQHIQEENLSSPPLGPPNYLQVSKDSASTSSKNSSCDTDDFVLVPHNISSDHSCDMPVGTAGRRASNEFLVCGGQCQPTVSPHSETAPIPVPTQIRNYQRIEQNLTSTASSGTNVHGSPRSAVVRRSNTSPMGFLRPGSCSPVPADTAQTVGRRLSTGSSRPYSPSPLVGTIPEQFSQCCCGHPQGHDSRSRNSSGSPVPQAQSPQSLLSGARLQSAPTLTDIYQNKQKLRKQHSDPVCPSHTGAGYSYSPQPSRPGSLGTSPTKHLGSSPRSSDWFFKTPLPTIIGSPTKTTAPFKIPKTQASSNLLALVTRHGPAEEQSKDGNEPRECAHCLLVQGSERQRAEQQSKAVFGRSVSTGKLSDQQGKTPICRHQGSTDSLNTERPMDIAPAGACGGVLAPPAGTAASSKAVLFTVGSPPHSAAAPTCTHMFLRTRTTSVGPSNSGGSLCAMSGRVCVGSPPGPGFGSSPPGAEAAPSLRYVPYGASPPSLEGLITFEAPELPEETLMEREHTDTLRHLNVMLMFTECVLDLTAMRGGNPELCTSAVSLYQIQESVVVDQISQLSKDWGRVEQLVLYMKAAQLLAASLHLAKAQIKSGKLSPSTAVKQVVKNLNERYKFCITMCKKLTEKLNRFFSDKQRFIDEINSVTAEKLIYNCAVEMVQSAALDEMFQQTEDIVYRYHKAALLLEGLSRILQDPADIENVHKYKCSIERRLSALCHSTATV

[7] = 10 µM, read-out: % of control at 10 µM

| Structure (SMILES) | remaining activity at 1 µM [1] | remaining activity at 10 µM ([1]; 10 µM, read-out: TAK1 (% of control at 10 µM)) | remaining activity at 1 µM [2] | remaining activity at 10 µM [2, 7] | remaining activity at 1 µM [3] | remaining activity at 10 µM [3, 7] | remaining activity at 1 µM [4] | remaining activity at 10 µM [4, 7] | remaining activity at 1 µM [5] | remaining activity at 10 µM [5, 7] | remaining activity at 1 µM [6] | remaining activity at 10 µM ([6]; 10 µM, read-out: ULK2 (% of control at 10 µM)) |
| --- | --- | --- | --- | --- | --- | --- | --- | --- | --- | --- | --- | --- |
| Nc1cc(C(F)(F)F)c(-c2cc(N3CCOCC3)nc(N3CCOCC3)n2)cn1 [Buparlisib] | 100% | 100% | 100% | 100% | 88% | 83% | 100% | 100% | 87% | 69% | 86% | 100% |
| Cn1c(=O)n(-c2ccc(C(C)(C)C#N)cc2)c2c3cc(-c4cnc5ccccc5c4)ccc3ncc21 [Dactolisib, 2-methyl-2-[4-(3-methyl-2-oxo-8-quinolin-3-yl-2,3-dihydroimidazo[4,5-c]quinolin-1-yl)-phenyl] propionitrile] | 55% | – | 100% | – | – | – | 97% | – | 100% | – | 93% | – |
| COc1ncc(-c2ccc3nccc(-c4ccnnc4)c3c2)cc1NS(=O)(=O)c1ccc(F)cc1F [Omipalisib] | 82% | – | 100% | – | 100% | – | 100% | – | 100% | – | 100% | – |
| FC(F)c1nc2ccccc2n1-c1nc(N2CCOCC2)nc(N2CCOCC2)n1 [ZSTK474, 2-(difluoromethyl)-1-[4,6-di(4-morpholinyl)-1,3,5-triazin-2-yl]-1H-benzimidazole] | 68% | – | 100% | – | 100% | – | 92% | – | 100% | – | 100% | – |

Source: PMC5564600 (Oncotarget, 2017)
